# Measured values reported in patent US20040037806A1, “Aldosterone blocker therapy to prevent or treat inflammation-related disorders” (Pharmacia Corporation, priority 2002, published 2004).
# “Also recorded” adds a separate entry of the source.
# Experiments:
# Format in all cases: in vivo, rat
# [1] = tested on: Intercellular Adhesion Molecule-1 (ICAM-1); test: Assay C: ICAM-1 mRNA, TaqMan; settings: aldosterone+salt alone or with eplerenone 100 mg/kg/day; 7, 14, 30 days
# Experimental: The procedure of Assay B was expanded upon in a further study. […] Myocardial tissue from animals in each treatment group was examined after 7, 14, or 30 days of treatment.
# (§1) Potassium chloride supplementation was added to the saline solution in order to prevent the potential hypokalemia associated with aldosterone excess.
# Treatment At the time of the surgery, an Alzet 2002 osmotic minipump (Alza Corp., Palo Alto, Calif.) containing either vehicle (9% ethanol/87% propylene glycol/4% dH2O) or 1.0 mg/mL d-aldosterone (Sigma Chemical, St. Louis, Mo.) was inserted subcutaneously at the nape of the neck. Aldosterone was administered at a dose of 0.75 µg/hour. […]
# The fluorogenic 5′-nuclease assay (TaqMan PCR) using Applied Biosystems' 7700 Sequence Detection System (Applied Biosystems, Foster City, Calif.) allowed for real time detection/quantitation of a specific gene by monitoring the increase in fluorescence of a gene-specific, dye-labeled oligonucleotide probe. […] When the probe was annealed to the target gene, fluorescence of 6FAM was prevented by the close proximity of TAMRA. The exonuclease activity of Taq polymerase released the dyes from the oligonucleotide probe by displacing the probe from the target sequence resulting in fluorescence excitation in direct proportion to the amount of target message present. […]
# [2] = Assay C: aldosterone infusion study, radiotelemetrized arterial blood pressure; settings: 30-day protocol; uninephrectomized Sprague-Dawley rats, aldosterone + salt alone or with eplerenone 100 mg/kg/day
# Experimental: The procedure of Assay B was expanded upon in a further study. […] Myocardial tissue from animals in each treatment group was examined after 7, 14, or 30 days of treatment. […] Lesions were preceded by the expression and progressive upregulation of proinflammatory molecules.
# Male Sprague-Dawley rats, weighing 230 to 250 g, (Harlan Sprague-Dawley Industries, Indianapolis, Ind.) were housed in a room 12-hours light/12-hours dark daily cycle at an ambient temperature of 22±1° C. (n=96). Animals were allowed one week to adjust after arrival and had free access to TEKLAD 22/5 rodent diet (Harlan TEKLAD, Madison, Wis.) and tap water until the initiation of the experiment.
# as §1
# Treatment At the time of the surgery, an Alzet 2002 osmotic minipump (Alza Corp., Palo Alto, Calif.) containing either vehicle (9% ethanol/87% propylene glycol/4% dH2O) or 1.0 mg/mL d-aldosterone (Sigma Chemical, St. Louis, Mo.) was inserted subcutaneously at the nape of the neck. […]
# Animals to be sacrificed after 7 or 14 days of treatment were uninephrectomized and implanted with an Alzet minipump. […] Animals were monitored daily for signs of distress and infection at the surgical site. […]
# Radiotelemetrized arterial blood pressure was calculated with the […]
# osteopontin = test: Assay A: osteopontin immunostaining of hearts; settings: angiotensin II-infused, saline-drinking Wistar rats; eplerenone 100 mpk; aldosterone replacement in adrenalectomized rats
Compound,ICAM-1 mRNA expression in myocardium [1],Systolic blood pressure (radiotelemetry) [2],Osteopontin expression in the heart (immunostaining) (osteopontin)
COC(=O)[C@@H]1CC2=CC(=O)CC[C@]2(C)[C@@]23O[C@@H]2C[C@@]2(C)[C@@H](CC[C@@]24CCC(=O)O4)[C@H]13 [eplerenone],significantly reduced; also recorded: inhibition of early time-course expression of myocardial ICAM-1 and VCAM-1,significantly reduced at days 8-30; also recorded: remained elevated compared to vehicle+salt controls,prevented osteopontin expression
C[C@]12CCC(=O)C=C1CC[C@@H]1[C@@H]2[C@@H](O)C[C@]2(C=O)[C@@H](C(=O)CO)CC[C@@H]12 [aldosterone],upregulated at day 14 and 30,induced severe hypertension; also recorded: induced a progressive increase in blood pressure with time,restored osteopontin expression
